The values below come from ChEMBL document CHEMBL1201862, “PubChem BioAssay data set” (2004).

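1) Cells in 96-well plates. 2) Compound, 48 h, 5 concentrations. 3) Linear interpolation between surrounding doses. 4) Unreached endpoint = highest concentration. The concentration for 50% growth inhibition is given as GI50.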 Calls of active or inactive are those of the source. No stated cut-off is given here; in the data, active = GI50 up to about 1.1 µM and inactive = higher.

Test systems include A498; A549; BT-549; EKVX; HT-29; Hs-578T; K562; KM12; M14; MDA-N; MOLT-4; NCI-H522; OVCAR-4; RPMI-8226; RXF 393; SNB-75; T47D; UACC-257; UACC-62; UO-31.
Holding throughout (test): inhibition of tumour cell growth, NCI panel, 48 h

Turning to `O=C(O)Cc1ccc(Oc2nc3ccccc3nc2-c2cccs2)cc1`, the GI50 is 22.1 µM (inactive) in the assay with A498; 46.7 µM (inactive) with A549; 30.5 µM (inactive) in the assay on BT-549; 32.4 µM (inactive) in the assay on EKVX; 42.6 µM (inactive) in the assay with HT-29; 61.7 µM (inactive) in the assay on Hs-578T. Moreover, the GI50 with K562 was 99.3 µM (inactive); with KM12, 44.2 µM (inactive); in the assay with M14, 66.4 µM (inactive); with MDA-N, 82.2 µM (inactive); in the assay on MOLT-4, 50 µM (inactive); in the assay with NCI-H522, 65.2 µM (inactive). The GI50 with OVCAR-4 is 51.1 µM (inactive); in the assay with RPMI-8226 it was 33.1 µM (inactive); with RXF 393 it was 17.4 µM (inactive); in the assay with SNB-75, 27.2 µM (inactive); in the assay on T47D, 20 µM (inactive); in the assay with UACC-257 it was > 100 µM (inactive). Moreover, the GI50 is 58.1 µM (inactive) in the assay with UACC-62 and 37.3 µM (inactive) in the assay on UO-31.

As for `Oc1ccc(Cl)cc1/C=N/c1cnc2ccccc2c1`, the GI50 with A498 is > 100 µM (inactive); with A549, > 92.7 µM (inactive); in the assay with BT-549 it was 22.3 µM (inactive); in the assay with EKVX, 29.7 µM (inactive); in the assay on HT-29 it was 36.6 µM (inactive); with Hs-578T it was > 68.9 µM (inactive). Besides, the GI50 in the assay on K562 was 10.2 µM (inactive); in the assay on KM12, 30.6 µM (inactive); in the assay with M14 it was 16.9 µM (inactive); in the assay on MDA-N, 34.7 µM (inactive); in the assay on MOLT-4, 2.84 µM (inactive); in the assay with NCI-H522 it was > 86.7 µM (inactive). The GI50 was 27.4 µM (inactive) in the assay on OVCAR-4; 13.1 µM (inactive) with RPMI-8226; > 100 µM (inactive) in the assay with RXF 393; 33.1 µM (inactive) in the assay with SNB-75; 4.81 µM (inactive) in the assay with T47D; 5.01 µM (inactive) in the assay on UACC-257. The results for the GI50 in the assay on UACC-62 and in the assay with UO-31 were 32.7 µM (inactive) and 45.6 µM (inactive), respectively.

Turning to `CCN(CC)CCN1C(=O)c2cccc3cc(N)cc(c23)C1=O`, the GI50 in the assay on A498 was 19.1 µM (inactive); with A549, 5.57 µM (inactive); in the assay on BT-549, 16.1 µM (inactive); with EKVX, 5.02 µM (inactive); in the assay with HT-29 it was 3.24 µM (inactive); in the assay with Hs-578T, 22.7 µM (inactive). The GI50 with K562 is 5.98 µM (inactive); in the assay on KM12, 9.73 µM (inactive); in the assay with M14, 13.3 µM (inactive); in the assay with MDA-N it was 10.3 µM (inactive); with MOLT-4 it was 3.46 µM (inactive); in the assay with NCI-H522, 6.43 µM (inactive). Moreover, the GI50 with OVCAR-4 was 12.4 µM (inactive); with RPMI-8226 it was 7.35 µM (inactive); in the assay on RXF 393 it was 14.2 µM (inactive); in the assay with SNB-75 it was 15.8 µM (inactive); in the assay with T47D it was 18.7 µM (inactive); in the assay with UACC-257 it was 10.7 µM (inactive). Further, the GI50 was 11.8 µM (inactive) with UACC-62 and 5.89 µM (inactive) with UO-31.

`CCOC(=O)Oc1cc2c(ccn2C)c2c1c1ccccc1n2C(=O)OCC`: the GI50 in the assay on A498, with A549, in the assay on BT-549, in the assay on EKVX, in the assay on HT-29 and in the assay with Hs-578T was > 100 µM (inactive) throughout. Moreover, the GI50 with K562, in the assay with KM12, in the assay with M14, in the assay with MDA-N, in the assay on MOLT-4 and in the assay with NCI-H522 was > 100 µM (inactive) each time. The GI50 with OVCAR-4, in the assay with RPMI-8226, with RXF 393, with SNB-75, in the assay on T47D and in the assay on UACC-257 was > 100 µM (inactive) each time. For the same compound, the GI50 with UACC-62 and with UO-31 was > 100 µM (inactive) throughout.

As for `CN(C)C[C@H]1CC[C@@H](CN(C)C)C1=O`, the GI50 is 49.2 µM (inactive) in the assay with A498; > 50 µM (inactive) with A549; 7.46 µM (inactive) in the assay on BT-549; 16.7 µM (inactive) with EKVX; 9.84 µM (inactive) in the assay with HT-29; 18.7 µM (inactive) in the assay on Hs-578T. Besides, the GI50 was 0.564 µM (active) in the assay on K562; 16.9 µM (inactive) with KM12; 8.77 µM (inactive) in the assay with M14; 8.55 µM (inactive) in the assay with MDA-N; 1.23 µM (inactive) with MOLT-4; 0.453 µM (active) in the assay with NCI-H522. Also, the GI50 was 9.23 µM (inactive) in the assay with OVCAR-4; 0.535 µM (active) in the assay on RPMI-8226; 9.29 µM (inactive) with RXF 393; 14.5 µM (inactive) in the assay on SNB-75; 7.03 µM (inactive) in the assay with T47D; 8.47 µM (inactive) in the assay with UACC-257. Besides, the figures for the GI50 with UACC-62 and with UO-31 were 9.08 µM (inactive) and 14.9 µM (inactive), respectively.

Consider `Nc1ccc(S(=O)(=O)Nc2cnc3c(Cl)cccc3n2)cc1` [CHLORSULFAQUINOXALINE], for which the GI50 with A498 was 131 µM (inactive); in the assay with A549, 117 µM (inactive); with BT-549 it was > 60.5 µM (inactive); with EKVX, 222 µM (inactive); with HT-29 it was 248 µM (inactive); with Hs-578T, 63.5 µM (inactive). The GI50 in the assay with K562 is 23.2 µM (inactive); in the assay with KM12 it was 147 µM (inactive); in the assay on M14, 274 µM (inactive); in the assay on MDA-N it was 24.3 µM (inactive); with MOLT-4, 75.2 µM (inactive); in the assay on NCI-H522 it was 29 µM (inactive). Further, the GI50 is 125 µM (inactive) in the assay on OVCAR-4; 129 µM (inactive) with RPMI-8226; 82.2 µM (inactive) in the assay with RXF 393; 181 µM (inactive) in the assay with SNB-75; 96.2 µM (inactive) with T47D; 344 µM (inactive) in the assay with UACC-257. Further, the GI50 was 36.7 µM (inactive) in the assay on UACC-62 and 151 µM (inactive) in the assay on UO-31.

In the case of `O=C(N/N=C\c1ccccc1)Nc1cccc2ccccc12`, the GI50 was 25.4 µM (inactive) in the assay with A498; 26.1 µM (inactive) in the assay with A549; 31 µM (inactive) in the assay on BT-549; 36.1 µM (inactive) in the assay on EKVX; 24.3 µM (inactive) with HT-29; 22 µM (inactive) in the assay on Hs-578T. For the same compound, the GI50 is > 100 µM (inactive) with K562; 33.4 µM (inactive) in the assay with KM12; 21.8 µM (inactive) with M14; 25.1 µM (inactive) in the assay on MDA-N; > 100 µM (inactive) in the assay with MOLT-4; 56.6 µM (inactive) with NCI-H522. Also, the GI50 in the assay with OVCAR-4 was 33.5 µM (inactive); in the assay with RPMI-8226, > 100 µM (inactive); in the assay with RXF 393 it was 28.1 µM (inactive); in the assay on SNB-75, 18.7 µM (inactive); in the assay on T47D, 2.98 µM (inactive); in the assay with UACC-257 it was 78.2 µM (inactive). The GI50 is 29.2 µM (inactive) in the assay on UACC-62 and 40.5 µM (inactive) in the assay on UO-31.

For `Cc1cc(Cl)cc2c1NC(=O)C2(O)CC(=O)c1ccco1` (stereo not given), the GI50 was 62.7 µM (inactive) in the assay with A498; > 70.6 µM (inactive) in the assay with A549; > 100 µM (inactive) in the assay with BT-549; > 100 µM (inactive) in the assay on EKVX; > 79.6 µM (inactive) in the assay on HT-29; 88.9 µM (inactive) with Hs-578T. Further, the GI50 in the assay with K562 was 27.1 µM (inactive); in the assay with KM12, > 75.9 µM (inactive); with M14, > 66.2 µM (inactive); in the assay on MDA-N, 10.4 µM (inactive); with MOLT-4, 0.92 µM (active); in the assay on NCI-H522, > 100 µM (inactive). Also, the GI50 with OVCAR-4 was 12.3 µM (inactive); in the assay with RPMI-8226 it was 47 µM (inactive); in the assay with RXF 393 it was 57 µM (inactive); with SNB-75 it was 55.1 µM (inactive); with T47D it was > 100 µM (inactive); in the assay with UACC-257, 45.9 µM (inactive). Further, the GI50 in the assay on UACC-62 is 31 µM (inactive); with UO-31, > 100 µM (inactive).

On to `Oc1ccc(Cl)cc1Cc1cc(Cl)cc(Cc2cc(Cl)ccc2O)c1O`, for which the GI50 in the assay on A498 is 1.46 µM (inactive); in the assay on A549, 2.83 µM (inactive); in the assay with BT-549, 2.79 µM (inactive); in the assay on EKVX, 2.33 µM (inactive); with HT-29 it was 3 µM (inactive); in the assay with Hs-578T, 1.88 µM (inactive). The GI50 in the assay on K562 was 1.63 µM (inactive); with KM12, 2.64 µM (inactive); in the assay with M14, 2.39 µM (inactive); with MDA-N, 2.66 µM (inactive); with MOLT-4, 2.34 µM (inactive); in the assay with NCI-H522 it was 0.766 µM (active). Besides, the GI50 in the assay with OVCAR-4 is 2.83 µM (inactive); with RPMI-8226 it was 0.91 µM (active); in the assay on RXF 393, 1.84 µM (inactive); in the assay on SNB-75, 1.93 µM (inactive); in the assay with T47D it was 2.07 µM (inactive); with UACC-257 it was 2.01 µM (inactive). In addition, the GI50 in the assay with UACC-62 is 2.15 µM (inactive); in the assay on UO-31, 3.01 µM (inactive).

As to `COC1=CC(=O)c2c(c(COP(=O)(N(C)CCBr)N(C)CCBr)cn2C)C1=O`, the GI50 was 0.279 µM (active) in the assay with A498; < 0.01 µM (active) in the assay on A549; 0.078 µM (active) in the assay with BT-549; 0.211 µM (active) in the assay on EKVX; < 0.0219 µM (active) in the assay on HT-29; 0.392 µM (active) with Hs-578T. The GI50 was 0.0398 µM (active) in the assay on K562; 0.219 µM (active) with KM12; < 0.0178 µM (active) in the assay with M14; 0.109 µM (active) in the assay with MDA-N; < 0.01 µM (active) in the assay with MOLT-4; 0.138 µM (active) in the assay on NCI-H522. Besides, the GI50 in the assay on OVCAR-4 was 1.33 µM (inactive); with RPMI-8226 it was 0.0323 µM (active); in the assay on RXF 393, 0.0574 µM (active); with SNB-75, 0.0826 µM (active); with T47D it was 1.31 µM (inactive); in the assay with UACC-257 it was 0.258 µM (active). The GI50 in the assay with UACC-62 is < 0.0333 µM (active); in the assay with UO-31, < 0.0261 µM (active).
